Among the data in EP4548976A1, “ANTIVIRAL COMPOUNDS AND COMPOSITIONS THEREFROM” (Consejo Superior De Investigaciones Científicas, priority 2023, dated 2025) are EC50, EC90 and CC50 values, retold here.

SMILES strings stand for the structures. pEC50: −log10 of the molar value.

Series [1] has as its system SARS-CoV-2 stock strain NL/2020. In words: Antiviral activity in A549-ACE2 cells using viral antigen quantitation (SARS-CoV-2 N protein immunofluorescence). The conditions noted are these: Severe acute respiratory syndrome coronavirus 2, MOI 0.005, 48 h; for pEC50: concentration reducing SARS-CoV-2 infection efficiency by 50% vs vehicle; for EC90: concentration reducing SARS-CoV-2 infection efficiency by 90% vs vehicle. The format is cell-based.

The next series is described as follows: in vitro. The conditions noted are these: human.

Turning to `COC(=O)c1cc(-c2ccc3c(ccn3C(=O)OC(C)(C)C)c2)ccc1NC(C#N)[C@H](Cc1c[nH]c2ccccc12)NC(=O)OC(C)(C)C` (mixture of isomers) [Example 19, tert-Butyl 5-(4-(((1RS,2S)-2-((tert-butoxycarbonyl)amino)-1-cyano-3-(1H-indol-3-yl)propyl)amino)-3-(methoxycarbonyl)phenyl)-1H-indole-1-carboxylate], in series [1], the pEC50 is 5.22 and the EC90 worked out at 31 µM. In the series “in vitro”, this molecule returned a CC50 of over 50 µM.

In series [1], `C#Cc1ccc(-c2cccc3[nH]cc(C[C@H](NC(=O)OC(C)(C)C)C(C#N)Nc4ccc(-c5ccc(N6CCOCC6)cc5)cc4C(=O)OC)c23)cc1` (mixture of isomers) [Example 6, Methyl 4-(((1RS,2S)-2-((tert-butoxycarbonyl)amino)-1-cyano-3-(4-(4-ethynylphenyl)-1H-indol-3-yl)propyl)amino)-4'-morpholino-[1,1'-biphenyl]-3-carboxylate] showed a negative-log EC50 (pEC50) of 5.10 and a 90% effect concentration (EC90) of 20 µM. This molecule also had a CC50 in “in vitro” of over 50 µM.

Take `COC(=O)c1cc(-c2cc3ccccc3s2)ccc1NC(C#N)[C@H](Cc1c[nH]c2ccccc12)NC(=O)OC(C)(C)C` (mixture of isomers) [Example 13, Methyl 5-(benzo[b]thiophen-2-yl)-2-(((1RS,2S)-2-((tert-butoxycarbonyl)amino)-1-cyano-3-(1H-indol-3-yl)propyl)amino)benzoate]: in series [1], the pEC50 is 5.73 and the 90% effect level (EC90) was put at 5 µM. In addition, the CC50 in the series “in vitro” worked out at 13 µM.

In series [1], `COC(=O)c1cc(C2=CCN(C(=O)OC(C)(C)C)CC2)ccc1NC(C#N)[C@H](Cc1c[nH]c2ccccc12)NC(=O)OC(C)(C)C` (mixture of isomers) [Example 14, tert-Butyl 4-(4-(((1RS,2S)-2-((tert-butoxycarbonyl)amino)-1-cyano-3-(1H-indol-3-yl)propyl)amino)-3-(methoxycarbonyl)phenyl)-3,6-dihydropyridine-1(2H)-carboxylate] showed a pEC50 of 5.15 and an EC90 of 16 µM. This molecule gave a CC50 in the series “in vitro” of over 50 µM.

In series [1], `COC(=O)c1cc(-c2ccnn2C2CCCCO2)ccc1NC(C#N)[C@H](Cc1c[nH]c2ccccc12)NC(=O)OC(C)(C)C` (mixture of isomers) [Example 23, Methyl 2-(((1RS,2S)-2-((tert-butoxycarbonyl)amino)-1-cyano-3-(1H-indol-3-yl)propyl)amino)-5-(1-(tetrahydro-2H-pyran-2-yl)-1H-pyrazol-5-yl)benzoate] showed a pEC50 of 5.40 and an EC90 of 8 µM. This molecule displayed a CC50 in the series “in vitro” of 50 µM.

In series [1], `COC(=O)c1cc(-c2ccc3cc[nH]c3c2)ccc1NC(C#N)[C@H](Cc1c[nH]c2ccccc12)NC(=O)OC(C)(C)C` (mixture of isomers) [Example 11, Methyl 2-(((1RS,2S)-2-((tert-butoxycarbonyl)amino)-1-cyano-3-(1H-indol-3-yl)propyl)amino)-5-(1H-indol-6-yl)benzoate] showed a pEC50 of 5.40 and a concentration for an effect of 90% (EC90) of 8 µM. The CC50 in “in vitro” is 30 µM.

In series [1], `COC(=O)c1cc(-c2cccc3[nH]ncc23)ccc1NC(C#N)[C@H](Cc1c[nH]c2ccccc12)NC(=O)OC(C)(C)C` (mixture of isomers) [Example 30, Methyl 2-(((1RS,2S)-2-((tert-butoxycarbonyl)amino)-1-cyano-3-(1H-indol-3-yl)propyl)amino)-5-(1H-indazol-4-yl)benzoate] showed a pEC50 of 6.00 and an EC90 of 2 µM. Moreover, in the series “in vitro”, the CC50 was found to be 10 µM.

In series [1], `COC(=O)c1cc(-c2ccc3[nH]ccc3c2)ccc1NC(C#N)[C@@H](Cc1c[nH]c2ccccc12)NC(=O)OC(C)(C)C` (mixture of isomers) [Example 27, Methyl 2-(((1RS,2R)-2-((tert-butoxycarbonyl)amino)-1-cyano-3-(1H-indol-3-yl)propyl)amino)-5-(1H-indol-5-yl)benzoate] had a pEC50 of 5.15 and a concentration for an effect of 90% (EC90) of 9 µM. The same molecule yielded a CC50 in “in vitro” of 35 µM.

Regarding `COC(=O)c1cc(-c2ccc(C(=O)N3CCOCC3)cc2)ccc1NC(C#N)[C@H](Cc1c[nH]c2ccccc12)NC(=O)OC(C)(C)C` (mixture of isomers) [Example 8, Methyl 4-(((1RS,2S)-2-((tert-butoxycarbonyl)amino)-1-cyano-3-(1H-indol-3-yl)propyl)amino)-4'-(morpholine-4-carbonyl)-[1,1'-biphenyl]-3-carboxylate], in series [1], the pEC50 was 6.05 and the 90% effect concentration (EC90) amounted to 2 µM. The same molecule displayed a CC50 in the series “in vitro” of over 50 µM.

For the molecule `COC(=O)c1cc(-c2c[nH]c3ncccc23)ccc1NC(C#N)[C@H](Cc1c[nH]c2ccccc12)NC(=O)OC(C)(C)C` (mixture of isomers) [Example 18, Methyl 2-(((1RS,2S)-2-((tert-butoxycarbonyl)amino)-1-cyano-3-(1H-indol-3-yl)propyl)amino)-5-(1H-pyrrolo[2,3-b]pyridin-3-yl)benzoate], in series [1], the pEC50 was 5.22 and it took 9 µM to reach the 90% level (EC90). Besides, the CC50 in “in vitro” is 10 µM.

Regarding `COC(=O)c1cc(-c2cnn(CCN3CCOCC3)c2)ccc1NC(C#N)[C@H](Cc1c[nH]c2ccccc12)NC(=O)OC(C)(C)C` (mixture of isomers) [Example 25, Methyl 2-(((1RS,2S)-2-((tert-butoxycarbonyl)amino)-1-cyano-3-(1H-indol-3-yl)propyl)amino)-5-(1-(2-morpholinoethyl)-1H-pyrazol-4-yl)benzoate], in series [1], the pEC50 was 5.22 and the concentration for an effect of 90% (EC90) is 9 µM. In addition, the CC50 in “in vitro” is over 50 µM.

In series [1], `CC(C)(C)OC(=O)N[C@@H](Cc1c[nH]c2ccccc12)C(C#N)Nc1ccccc1C(=O)N1CCCCCC1` (mixture of isomers) [Example 31, tert-Butyl ((1RS,2S)-1-((2-(azepane-1-carbonyl)phenyl)amino)-1-cyano-3-(1H-indol-3-yl)propan-2-yl)carbamate] had a negative logarithm of the EC50 (pEC50) of 5.10 and an EC90 of 39 µM. The CC50 in “in vitro” is 36 µM.

Turning to `COC(=O)c1cc(-c2ccc3c(c2)OCCO3)ccc1NC(C#N)[C@@H](Cc1c[nH]c2ccccc12)NC(=O)OC(C)(C)C` (mixture of isomers) [Example 28, Methyl 2-(((1RS,2R)-2-((tert-butoxycarbonyl)amino)-1-cyano-3-(1H-indol-3-yl)propyl)amino)-5-(2,3-dihydrobenzo[b][1,4]dioxin-6-yl)benzoate], in series [1], the pEC50 was 5.15 and the EC90 was determined as 30 µM. In the series “in vitro”, the CC50 is over 50 µM.

In series [1], `COC(=O)c1cc(-c2ccc3[nH]ncc3c2)ccc1NC(C#N)[C@H](Cc1c[nH]c2ccccc12)NC(=O)OC(C)(C)C` (mixture of isomers) [Example 16, Methyl 2-(((1RS,2S)-2-((tert-butoxycarbonyl)amino)-1-cyano-3-(1H-indol-3-yl)propyl)amino)-5-(1H-indazol-5-yl)benzoate] showed a negative logarithm of the EC50 (pEC50) of 5.22 and an EC90 of 9 µM. Also, the CC50 in the series “in vitro” amounted to 10 µM.

In series [1], `COC(=O)c1cc(-c2ccc(N3CCOCC3)cc2)ccc1NC(C#N)[C@H](Cc1c[nH]c2cccc(Br)c12)NC(=O)OC(C)(C)C` (mixture of isomers) [Example 4, Methyl 4-(((1RS,2S)-3-(4-bromo-1H-indol-3-yl)-2-((tert-butoxycarbonyl)amino)-1-cyanopropyl)amino)-4'-morpholino-[1,1'-biphenyl]-3-carboxylate] gave a negative logarithm of the EC50 (pEC50) of 5.70 and a concentration for an effect of 90% (EC90) of 7.5 µM. This molecule also showed a CC50 in “in vitro” of over 50 µM.

As for `COC(=O)c1cc(C2=CCCCC2)ccc1NC(C#N)[C@H](Cc1c[nH]c2ccccc12)NC(=O)OC(C)(C)C` (mixture of isomers) [Example 22, Methyl 4-(((1RS,2S)-2-((tert-butoxycarbonyl)amino)-1-cyano-3-(1H-indol-3-yl)propyl)amino)-2',3',4',5'-tetrahydro-[1,1'-biphenyl]-3-carboxylate], in series [1], the negative logarithm of the EC50 (pEC50) is 5.22 and the 90% effect level (EC90) was put at 9 µM. The molecule further displayed a CC50 in “in vitro” of 32 µM.

With `COC(=O)c1cc(-c2ccc(F)c(-c3nn[nH]n3)c2)ccc1NC(C#N)[C@H](Cc1c[nH]c2ccccc12)NC(=O)OC(C)(C)C` (mixture of isomers) [Example 21, Methyl 4-(((1RS,2S)-2-((tert-butoxycarbonyl)amino)-1-cyano-3-(1H-indol-3-yl)propyl)amino)-4'-fluoro-3'-(2H-tetrazol-5-yl)-[1,1'-biphenyl]-3-carboxylate], in series [1], the pEC50 is 5.22 and the EC90 was over 50 µM. In “in vitro”, the CC50 is over 50 µM.

In series [1], `COC(=O)c1cc(-c2ccnc(N3CCOCC3)c2)ccc1NC(C#N)[C@H](Cc1c[nH]c2ccccc12)NC(=O)OC(C)(C)C` (mixture of isomers) [Example 7, Methyl 2-(((1RS,2S)-2-((tert-butoxycarbonyl)amino)-1-cyano-3-(1H-indol-3-yl)propyl)amino)-5-(2-morpholinopyridin-4-yl)benzoate] gave a pEC50 of 5.96 and an EC90 of 6 µM. This molecule returned a CC50 in “in vitro” of over 50 µM.

Take `COC(=O)c1cc(-c2ccc3ocnc3c2)ccc1NC(C#N)[C@H](Cc1c[nH]c2ccccc12)NC(=O)OC(C)(C)C` (mixture of isomers) [Example 24, Methyl 5-(benzo[d]oxazol-5-yl)-2-(((1RS,2S)-2-((tert-butoxycarbonyl)amino)-1-cyano-3-(1H-indol-3-yl)propyl)amino)benzoate]: in series [1], the negative logarithm of the EC50 (pEC50) was 5.22 and the EC90 was 9 µM. The CC50 in the series “in vitro” is over 50 µM.

In series [1], `COC(=O)c1cc(-c2cnn(Cc3ccccc3)c2)ccc1NC(C#N)[C@H](Cc1c[nH]c2ccccc12)NC(=O)OC(C)(C)C` (mixture of isomers) [Example 17, Methyl 5-(1-benzyl-1H-pyrazol-4-yl)-2-(((1RS,2S)-2-((tert-butoxycarbonyl)amino)-1-cyano-3-(1H-indol-3-yl)propyl)amino)benzoate] showed a negative logarithm of the EC50 (pEC50) of 6.00 and an EC90 of 2 µM. In the series “in vitro”, this molecule displayed a CC50 of over 50 µM.

For orientation: pEC50 means the EC50 on a negative log10 scale, so that one unit is a factor of ten. Lower therefore signals a large EC50. By EC90 is commonly meant the concentration at which the effect reaches the 90% level. A lower EC90 goes with an effect from little substance.
